Laboratory results reported in ChEMBL document CHEMBL1201862, “PubChem BioAssay data set” (2004).
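The compound was tested at five concentrations on cells cultured in 96-well plates, with a 48-hour exposure period. The concentration for 50% growth inhibition is given as GI50.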 The source made the active and inactive calls. Cut-off read from the data, not from the text of the source: active = GI50 up to about 1.1 µM and inactive = higher.

Key:
Assay in all cases: DTP human tumour cell line panel, 48 h
[1] = tested on: OVCAR-5
[2] = tested on: T47D
[3] = tested on: M14
[4] = tested on: SN12C
[5] = tested on: NCI-H460
[6] = tested on: UACC-62
[7] = tested on: MOLT-4
[8] = tested on: IGROV-1
[9] = tested on: SK-MEL-2
[10] = tested on: HT-29
[11] = tested on: SK-MEL-5
[12] = tested on: SNB-75
[13] = tested on: NCI-H23
[14] = tested on: SNB-19
[15] = tested on: 786-0
[16] = tested on: UACC-257
[17] = tested on: CAKI-1
[18] = tested on: U-251
[19] = tested on: SK-OV-3
[20] = tested on: SF-268
[21] = tested on: CCRF-CEM
[22] = tested on: LOX IMVI
[23] = tested on: ACHN
[24] = tested on: K562
[25] = tested on: SR
[26] = tested on: MDA-MB-231
[27] = tested on: MCF7
[28] = tested on: A498
[29] = tested on: PC-3
[30] = tested on: HCC 2998
[31] = tested on: SF-295
[32] = tested on: SF-539
[33] = tested on: Hs-578T
[34] = tested on: DU-145
[35] = tested on: OVCAR-8
[36] = tested on: HOP-92
[37] = tested on: UO-31
[38] = tested on: HCT-15
[39] = tested on: OVCAR-4
[40] = tested on: NCI-H522
[41] = tested on: COLO 205
[42] = tested on: SK-MEL-28
[43] = tested on: RPMI-8226
[44] = tested on: HCT-116
[45] = tested on: A549
[46] = tested on: MDA-MB-435
[47] = tested on: HOP-62
[48] = tested on: NCI/ADR-RES
[49] = tested on: KM12
[50] = tested on: MDA-N
[51] = tested on: NCI-H226
[52] = tested on: SW-620
[53] = tested on: RXF 393
[54] = tested on: HL-60
[55] = tested on: Malme-3M
[56] = tested on: TK-10
[57] = tested on: OVCAR-3
[58] = tested on: EKVX

Q: Which GI50 [1] does the source give for CN1CCN(c2ccc3[nH]c(-c4ccc5[nH]c(CCCc6ccc(N(CCCl)CCCl)cc6)nc5c4)nc3c2)CC1 here?
A: > 100 µM (inactive)

Q: What about the GI50 [2] of the same compound?
A: > 100 µM (inactive)

Q: And the GI50 [3]?
A: > 100 µM (inactive)

Q: And the GI50 [4]?
A: > 100 µM (inactive)

Q: What about the GI50 [5] of the same compound?
A: > 100 µM (inactive)

Q: And the GI50 [6]?
A: 84.5 µM (inactive)

Q: What about the GI50 [7] of the same compound?
A: 77.8 µM (inactive)

Q: What about the GI50 [8] of the same compound?
A: 13.5 µM (inactive)

Q: And the GI50 [9]?
A: > 100 µM (inactive)

Q: What about the GI50 [10] of the same compound?
A: 41.7 µM (inactive)

Q: And the GI50 [11]?
A: > 100 µM (inactive)

Q: And the GI50 [12]?
A: > 100 µM (inactive)

Q: What about the GI50 [13] of the same compound?
A: > 100 µM (inactive)

Q: And the GI50 [14]?
A: > 100 µM (inactive)

Q: And the GI50 [15]?
A: > 100 µM (inactive)

Q: And the GI50 [16]?
A: > 100 µM (inactive)

Q: And the GI50 [17]?
A: > 100 µM (inactive)

Q: And the GI50 [18]?
A: > 100 µM (inactive)

Q: And the GI50 [19]?
A: > 100 µM (inactive)

Q: And the GI50 [20]?
A: > 100 µM (inactive)

Q: What about the GI50 [21] of the same compound?
A: 75.3 µM (inactive)

Q: And the GI50 [22]?
A: 60.7 µM (inactive)

Q: And the GI50 [23]?
A: > 100 µM (inactive)

Q: What about the GI50 [24] of the same compound?
A: > 100 µM (inactive)

Q: What about the GI50 [25] of the same compound?
A: 96.2 µM (inactive)

Q: What about the GI50 [26] of the same compound?
A: > 100 µM (inactive)

Q: What about the GI50 [27] of the same compound?
A: 64.3 µM (inactive)

Q: And the GI50 [28]?
A: > 100 µM (inactive)

Q: And the GI50 [29]?
A: > 100 µM (inactive)

Q: What about the GI50 [30] of the same compound?
A: > 100 µM (inactive)

Q: What about the GI50 [31] of the same compound?
A: > 100 µM (inactive)

Q: What about the GI50 [32] of the same compound?
A: > 100 µM (inactive)

Q: What about the GI50 [33] of the same compound?
A: 2.09 µM (inactive)

Q: And the GI50 [34]?
A: > 100 µM (inactive)

Q: What about the GI50 [35] of the same compound?
A: > 100 µM (inactive)

Q: And the GI50 [36]?
A: > 100 µM (inactive)

Q: And the GI50 [37]?
A: > 100 µM (inactive)

Q: And the GI50 [38]?
A: > 100 µM

Q: And the GI50 [39]?
A: > 100 µM (inactive)

Q: And the GI50 [40]?
A: > 100 µM (inactive)

Q: What about the GI50 [41] of the same compound?
A: > 100 µM (inactive)

Q: What about the GI50 [42] of the same compound?
A: > 100 µM (inactive)

Q: And the GI50 [43]?
A: > 100 µM (inactive)

Q: What about the GI50 [44] of the same compound?
A: > 100 µM (inactive)

Q: What about the GI50 [45] of the same compound?
A: > 100 µM (inactive)

Q: And the GI50 [46]?
A: > 100 µM (inactive)

Q: And the GI50 [47]?
A: > 100 µM (inactive)

Q: And the GI50 [48]?
A: > 100 µM (inactive)

Q: And the GI50 [49]?
A: > 100 µM (inactive)

Q: And the GI50 [50]?
A: > 100 µM (inactive)

Q: What about the GI50 [51] of the same compound?
A: > 100 µM (inactive)

Q: What about the GI50 [52] of the same compound?
A: > 100 µM (inactive)

Q: And the GI50 [53]?
A: > 100 µM (inactive)

Q: And the GI50 [54]?
A: 62.8 µM (inactive)

Q: What about the GI50 [55] of the same compound?
A: > 100 µM (inactive)

Q: And the GI50 [56]?
A: > 100 µM (inactive)

Q: Which GI50 [57] does the source give for CC1(C)CC(=O)C2=C(C1)OC1=C(C(=O)CC(C)(C)C1)C2CC(c1ccccc1)c1ccc(O)c(O)c1O (stereo unspecified) here?
A: 3.54 µM (inactive)

Q: What about the GI50 [1] of the same compound?
A: > 10 µM (inactive)

Q: What about the GI50 [58] of the same compound?
A: > 10 µM (inactive)

Q: What about the GI50 [3] of the same compound?
A: 9.91 µM (inactive)

Q: What about the GI50 [4] of the same compound?
A: > 10 µM (inactive)

Q: And the GI50 [8]?
A: > 10 µM (inactive)

Q: What about the GI50 [10] of the same compound?
A: 3.04 µM (inactive)

Q: What about the GI50 [11] of the same compound?
A: 5.68 µM (inactive)

Q: What about the GI50 [12] of the same compound?
A: 3.05 µM (inactive)

Q: What about the GI50 [13] of the same compound?
A: 5.9 µM (inactive)

Q: And the GI50 [14]?
A: > 10 µM (inactive)

Q: And the GI50 [17]?
A: 5.11 µM (inactive)

Q: And the GI50 [18]?
A: > 10 µM (inactive)

Q: And the GI50 [20]?
A: > 10 µM (inactive)

Q: What about the GI50 [23] of the same compound?
A: > 10 µM (inactive)

Q: What about the GI50 [26] of the same compound?
A: 8.91 µM (inactive)

Q: What about the GI50 [29] of the same compound?
A: 2.87 µM (inactive)

Q: What about the GI50 [31] of the same compound?
A: 3.96 µM (inactive)

Q: And the GI50 [32]?
A: > 10 µM (inactive)

Q: And the GI50 [34]?
A: > 10 µM (inactive)

Q: What about the GI50 [35] of the same compound?
A: > 10 µM (inactive)

Q: And the GI50 [36]?
A: 5.18 µM (inactive)

Q: And the GI50 [37]?
A: > 10 µM (inactive)

Q: And the GI50 [38]?
A: 4.18 µM

Q: What about the GI50 [39] of the same compound?
A: 6.38 µM (inactive)

Q: And the GI50 [44]?
A: 8.81 µM (inactive)

Q: What about the GI50 [45] of the same compound?
A: 3.73 µM (inactive)

Q: And the GI50 [46]?
A: 8.13 µM (inactive)

Q: And the GI50 [48]?
A: > 10 µM (inactive)

Q: What about the GI50 [49] of the same compound?
A: 3.41 µM (inactive)

Q: And the GI50 [50]?
A: > 10 µM (inactive)

Q: And the GI50 [51]?
A: > 10 µM (inactive)

Q: And the GI50 [52]?
A: 3.36 µM (inactive)

Q: And the GI50 [53]?
A: > 10 µM (inactive)

Q: And the GI50 [56]?
A: > 10 µM (inactive)
